These results are taken from PubChem BioAssay AID743339 (Broad Institute, 2014).

The source made the active and inactive calls.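 How the source made its calls: active means activation curve crossing 200% at or below the highest valid dose tested for that sample; inconclusive means flat curve with activation between 30 and 70%, or poor fit; inactive means the rest, including signal falling instead of rising.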

Chain of Leucyl-cystinyl aminopeptidase (Mus musculus) (Q8C129 whole entry, looked up): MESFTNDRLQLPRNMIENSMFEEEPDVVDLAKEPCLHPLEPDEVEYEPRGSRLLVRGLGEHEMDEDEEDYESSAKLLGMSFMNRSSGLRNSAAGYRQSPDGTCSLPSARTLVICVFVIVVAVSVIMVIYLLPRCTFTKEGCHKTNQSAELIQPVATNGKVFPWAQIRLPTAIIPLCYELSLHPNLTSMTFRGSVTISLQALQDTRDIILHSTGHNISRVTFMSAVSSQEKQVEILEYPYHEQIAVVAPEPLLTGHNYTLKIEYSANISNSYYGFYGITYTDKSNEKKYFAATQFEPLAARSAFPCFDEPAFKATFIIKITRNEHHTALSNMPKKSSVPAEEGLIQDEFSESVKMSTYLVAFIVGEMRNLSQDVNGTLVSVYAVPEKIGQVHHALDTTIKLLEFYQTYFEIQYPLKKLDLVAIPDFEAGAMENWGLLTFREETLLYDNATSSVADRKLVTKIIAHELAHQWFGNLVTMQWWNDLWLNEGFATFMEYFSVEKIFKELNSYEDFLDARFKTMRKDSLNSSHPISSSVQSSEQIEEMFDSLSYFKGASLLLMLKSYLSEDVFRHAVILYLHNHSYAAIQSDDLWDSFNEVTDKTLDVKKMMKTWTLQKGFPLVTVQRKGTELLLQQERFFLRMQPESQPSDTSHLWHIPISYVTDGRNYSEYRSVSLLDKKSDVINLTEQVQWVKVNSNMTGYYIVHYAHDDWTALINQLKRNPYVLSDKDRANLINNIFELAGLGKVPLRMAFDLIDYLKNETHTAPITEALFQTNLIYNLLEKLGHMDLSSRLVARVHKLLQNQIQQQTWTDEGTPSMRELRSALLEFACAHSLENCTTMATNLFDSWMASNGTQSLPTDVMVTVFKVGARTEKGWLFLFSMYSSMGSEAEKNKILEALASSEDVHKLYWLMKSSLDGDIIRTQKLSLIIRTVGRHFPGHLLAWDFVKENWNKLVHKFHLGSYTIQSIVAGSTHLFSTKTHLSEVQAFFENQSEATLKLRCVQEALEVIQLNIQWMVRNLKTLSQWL

The first assay has as its target Leucyl-cystinyl aminopeptidase (Mus musculus) (UniProt Q8C129). The experiment in a line: activation of mouse IRAP aminopeptidase activity – biochemical, Leu-AMC fluorescence, cherry-picked samples, selectivity assay for ERAP1 modulator project, dose response (AID 743339). To be noted: purified IRAP, Leu-AMC cleavage fluorescence, 1 h.
For the molecule `COc1ccc(-c2cc3ccc(O)cc3oc2=O)cc1OC`, the AC200 was 983 nM.
The same measure, in the same setting: the same measure for `Cc1cc(=O)oc2cc(NS(=O)(=O)c3ccc(F)cc3)ccc12`: 998 nM; for `CCCc1cc(=O)oc2c(CN(CC)CC)c(O)c(Cl)cc12`: 638 nM; for `O=c1oc2cc(O)ccc2cc1S(=O)(=O)c1ccccc1`: 351 nM.
For `CCC(=O)N1[C@@H]2c3ccc(/C=C/c4ccccc4)c(=O)n3C[C@H]1[C@H](CO)[C@H]2C(=O)N(C)C`, the AC200 is 872 nM.
With `CCN(CC)Cc1c(O)c(Cl)cc2c(C)cc(=O)oc12`, the AC200 was 620 nM.
As to `COCC(=O)N1[C@@H]2Cn3c(ccc(/C=C/c4ccccc4)c3=O)[C@H]1[C@@H](C(=O)N1CCOCC1)[C@@H]2CO`, the AC200 was 757 nM.
Regarding `CCc1cc(=O)oc2c(CN3CCN(C)CC3)c(O)ccc12`, the AC200 was 1540 nM.
Still for that read-out and setting: to `CN(C)Cc1c(O)ccc2cc(-c3nc4ccccc4n3C)c(=O)oc12` belongs 202 nM.
Take `CN1CCCC1CCNc1ccc2c(=O)c3ccccc3oc2c1` (stereo not given): the AC200 was 555 nM.
In the case of `O=C(NCC1CC1)[C@H]1[C@H](CO)[C@H]2Cn3c(ccc(/C=C/c4ccccc4)c3=O)[C@@H]1N2C(=O)C1CC1`, the AC200 was 927 nM.
On to `Cc1cc(=O)oc2c(CN3CCCCC3)c(O)ccc12`, for which the AC200 was 988 nM.
Consider `N#Cc1c(N)n(CCNC(=O)c2ccccc2)c2nc3ccccc3nc12`, for which the AC200 was > 2600 nM (inactive).
Take `Cc1c(C)c2ccc(O)c(CN3CCN(C)CC3)c2oc1=O`: the AC200 is 1510 nM.
Same read-out and setting: the same measure for `COc1cc2ccc(=O)oc2cc1O`: 348 nM; for `O=c1oc2c(CN3CCN(CCO)CC3)c(O)ccc2cc1-c1ccccn1`: 275 nM.
With `Cc1c(O)ccc2c(CN3CCN(Cc4ccccc4)CC3)cc(=O)oc12`, the AC200 is > 2600 nM (inactive).
For `COc1ccc(C2=NN(c3ccc(C(=O)O)cc3)C(c3ccc(OC)c(OC)c3)C2)cc1` (stereo not given), the AC200 is 824 nM.
As for `O=c1ccc2cc(OC3O[C@H](CO)[C@@H](O)[C@H](O)[C@H]3O)c(O)cc2o1` (stereo not given in full), the AC200 is 346 nM.
`COCC(=O)N1[C@@H]2c3ccc(/C=C/c4ccccc4)c(=O)n3C[C@H]1[C@H](CO)[C@H]2C(=O)N1CCOCC1`: the AC200 is 684 nM.
As to `CCN(CC)Cc1c(O)ccc2cc(-c3nc4ccccc4n3C)c(=O)oc12`, the AC200 was 229 nM.
Still for that read-out and setting: the same measure for `CCc1c(C)c2cc(Cl)c(O)c(CN(CC)CC)c2oc1=O`: 546 nM; for `COCCCn1c(C(=O)N2CCOCC2)cc2c(=O)n3ccccc3nc21`: > 2600 nM (inactive).
As to `O=c1ccc2cc(O)c(O)cc2o1`, the AC200 was 2120 nM.
`O=C(C[C@H]1CC[C@@H]2[C@H](COC[C@@H](O)CN2C(=O)Nc2cccc(Cl)c2)O1)N1CCCCC1`: the AC200 was > 11000 nM (inactive).
Same read-out and setting: the same measure for `O=c1cc(CN2CCN(Cc3ccccc3)CC2)c2ccc(O)cc2o1`: 1470 nM; for `CC(=O)N1[C@@H]2c3ccc(/C=C/c4ccccc4)c(=O)n3C[C@H]1[C@H](CO)[C@H]2C(=O)N(C)C`: 906 nM; for `Cc1cc(=O)oc2c(CN3CCN(CCO)CC3)c(O)ccc12`: 1450 nM.

The assay is the same for the next values; noted with them: purified IRAP, Leu-AMC cleavage fluorescence, 1 h; at 2.6 µM (top of the series).
As for `C[C@@H]1CCCCO[C@@H](CN(C)C(=O)CCC(F)(F)F)[C@@H](C)CN([C@@H](C)CO)C(=O)c2cc(NS(=O)(=O)c3ccccc3)ccc2O1`, the activation is 11.6% (inactive).

The assay is the same for the next values; noted with them: purified IRAP, Leu-AMC cleavage fluorescence, 1 h; at 5 µM (top of the series).
For `CCCN(C)C[C@@H]1OCCCC[C@@H](C)Oc2ccc(NS(=O)(=O)c3ccc(C)cc3)cc2C(=O)N([C@@H](C)CO)C[C@@H]1C`, the activation was 0.889% (inactive).

Staying with this assay, now noted: purified IRAP, Leu-AMC cleavage fluorescence, 1 h; at 5.6 µM (top of the series).
Regarding `COc1ccc(S(=O)(=O)N(C)C[C@@H]2Oc3ncccc3C(=O)N([C@H](C)CO)C[C@@H]2C)cc1`, the activation is 9.5% (inactive).
For `C[C@@H]1CCCCO[C@@H](CN(C)Cc2ccccc2)[C@@H](C)CN([C@H](C)CO)C(=O)c2cc(NS(=O)(=O)c3cccs3)ccc2O1`, the activation was 16.2% (inactive).
With `C[C@@H]1CCCCO[C@@H](CN(C)Cc2ccc3c(c2)OCO3)[C@@H](C)CN([C@@H](C)CO)C(=O)c2cc(NS(=O)(=O)c3ccccc3)ccc2O1`, the activation was 7.88% (inactive).

Staying with this assay, now noted: purified IRAP, Leu-AMC cleavage fluorescence, 1 h; at 8 µM (top of the series).
With `CCCN(C)C[C@@H]1OCCCC[C@@H](C)Oc2ccc(NS(=O)(=O)c3ccc(OC)cc3)cc2C(=O)N([C@H](C)CO)C[C@@H]1C`, the activation is -24.7% (inactive).

The same assay, now with this note: purified IRAP, Leu-AMC cleavage fluorescence, 1 h; at 10 µM (top of the series).
Turning to `CCCN(C)C[C@@H]1OCCCC[C@@H](C)Oc2ccc(NS(=O)(=O)c3c(C)noc3C)cc2C(=O)N([C@H](C)CO)C[C@@H]1C`, the activation is -22.5% (inactive).

Still in this assay, the particulars now being: purified IRAP, Leu-AMC cleavage fluorescence, 1 h; at 11 µM (top of the series).
As for `CCCNC(=O)C[C@@H]1CC[C@@H]2[C@H](COC[C@H](O)CN2C(=O)Nc2cccc(Cl)c2)O1`, the activation was 30.1% (inactive).
On the same count and under the same terms, to `COc1ccc(CN(C)C[C@H]2OCCCC[C@@H](C)Oc3ccc(NS(=O)(=O)c4cccs4)cc3C(=O)N([C@@H](C)CO)C[C@@H]2C)cc1` belongs 24.3% (inactive).
On the same count and under the same terms, the same measure for `CCC(=O)N(C)C[C@H]1Oc2ncc(C#Cc3ccncc3)cc2C(=O)N([C@H](C)CO)C[C@H]1C`: 4.22% (inactive); for `C[C@@H]1CN([C@H](C)CO)C(=O)c2cc(NC(=O)Nc3ccc(F)cc3)ccc2O[C@H]1CN(C)Cc1ccc(C(=O)O)cc1`: 1.25% (inactive); for `O=C(CSc1cn[nH]n1)Nc1cccc(C(=O)O)c1`: 17.4% (inactive).
For `COc1ccc(NC(=O)Nc2ccc3c(c2)C(=O)N([C@H](C)CO)C[C@@H](C)[C@H](CN(C)Cc2ccc(C(=O)O)cc2)OCCCC[C@@H](C)O3)cc1`, the activation was 10% (inactive).
For the molecule `C[C@H](CO)N1C[C@H](C)[C@H](CN(C)Cc2ccc(C(=O)O)cc2)Oc2c(NC(=O)Nc3ccccc3)cccc2C1=O`, the activation is 24.2% (inactive).
For `COc1ccc(NC(=O)Nc2cccc3c2O[C@H](CN(C)Cc2ccc(C(=O)O)cc2)[C@H](C)CN([C@H](C)CO)C3=O)cc1`, the activation is 8.21% (inactive).
In the case of `COc1ccc(NC(=O)Nc2ccc3c(c2)C(=O)N([C@H](C)CO)C[C@@H](C)[C@@H](CN(C)Cc2ccc(C(=O)O)cc2)OCCCC[C@@H](C)O3)cc1`, the activation was -5.71% (inactive).
`CCCN(C)C[C@@H]1OCCCC[C@@H](C)Oc2ccc(NS(=O)(=O)c3ccccc3)cc2C(=O)N([C@H](C)CO)C[C@@H]1C`: the activation was -6.67% (inactive).
With `Cc1noc(C)c1NC(=O)N(C)C[C@@H]1Oc2c(NC(=O)Nc3ccccc3)cccc2C(=O)N([C@H](C)CO)C[C@@H]1C`, the activation was 12.9% (inactive).
The same measure, in the same setting: the same measure for `Cc1noc(C)c1NC(=O)N(C)C[C@@H]1Oc2c(NC(=O)Nc3ccc(F)cc3)cccc2C(=O)N([C@H](C)CO)C[C@@H]1C`: 36.7% (inactive); for `C[C@@H]1CCCCO[C@@H](CN(C)Cc2ccc(C(=O)O)cc2)[C@@H](C)CN([C@H](C)CO)C(=O)c2cc(NC(=O)Nc3cccc4ccccc34)ccc2O1`: -5.32% (inactive).
Still for that read-out and setting: the same measure for `C[C@@H]1CCCCO[C@@H](CN(C)CC2CCCCC2)[C@H](C)CN([C@@H](C)CO)C(=O)c2cc(NC(=O)Nc3ccccc3)ccc2O1`: -13.9% (inactive).
As to `CCC(=O)N(C)C[C@@H]1Oc2ncc(C#Cc3ccncc3)cc2C(=O)N([C@@H](C)CO)C[C@@H]1C`, the activation is 2.82% (inactive).
For `COc1ccc(CN(C)C[C@@H]2OCCCC[C@H](C)Oc3ccc(NS(=O)(=O)c4cccs4)cc3C(=O)N([C@H](C)CO)C[C@@H]2C)cc1`, the activation was -13.3% (inactive).
Same read-out and setting: the same measure for `O=C(O)c1cccc(NC(=O)c2ccccc2NC(=O)c2cccc([N+](=O)[O-])c2)c1`: 8.03% (inactive); for `COc1ccc(CN(C)C[C@@H]2OCCCC[C@H](C)Oc3ccc(NS(=O)(=O)c4cccs4)cc3C(=O)N([C@@H](C)CO)C[C@@H]2C)cc1`: 10.9% (inactive); for `CC(=O)N1CCN(C(=O)C2(NC(=O)Nc3ccc(C)cc3)CCCCC2)CC1`: 10% (inactive).
Still for that read-out and setting: the same measure for `O=C(C[C@H]1CC[C@H]2[C@@H](COC[C@@H](O)CN2C(=O)Nc2cccc(Cl)c2)O1)N1CCCCC1`: 16.9% (inactive).
For the molecule `O=C(O)c1ccccc1NS(=O)(=O)c1cccc(-n2sc3ccccc3c2=O)c1`, the activation is -25.6% (inactive).
As to `C[C@@H]1CCCCO[C@@H](CN(C)CC2CC2)[C@@H](C)CN([C@H](C)CO)C(=O)c2cc(NS(=O)(=O)c3ccc(Cl)cc3)ccc2O1`, the activation is -6.39% (inactive).
Consider `COc1ccc(NC(=O)Nc2ccc3c(c2)C(=O)N([C@@H](C)CO)C[C@@H](C)[C@H](CN(C)Cc2ccc(C(=O)O)cc2)OCCCC[C@H](C)O3)cc1`, for which the activation was 58.5% (inactive).
On to `C[C@H]1CN([C@@H](C)CO)C(=O)c2cccc(NC(=O)Nc3ccc(C(F)(F)F)cc3)c2O[C@@H]1CN(C)C`, for which the activation was -7.32% (inactive).
In the case of `Cc1noc(C)c1S(=O)(=O)Nc1ccc2c(c1)C(=O)N([C@H](C)CO)C[C@@H](C)[C@@H](CN(C)CC1CCCCC1)OCCCC[C@@H](C)O2`, the activation was 2.83% (inactive).
`C[C@H]1CN([C@@H](C)CO)C(=O)c2cccc(NC(=O)Nc3ccc4c(c3)OCO4)c2O[C@@H]1CN(C)CC1CC1`: the activation was -1.26% (inactive).
With `COc1ccc(CN(C)C[C@H]2OCCCC[C@@H](C)Oc3ccc(NS(=O)(=O)c4cccs4)cc3C(=O)N([C@H](C)CO)C[C@H]2C)cc1`, the activation was 10% (inactive).
On the same count and under the same terms, to `COc1ccc(CN(C)C[C@@H]2OCCCC[C@@H](C)Oc3ccc(NS(=O)(=O)c4cccs4)cc3C(=O)N([C@H](C)CO)C[C@@H]2C)cc1` belongs 3.66% (inactive); to `C[C@@H]1CCCCO[C@@H](CN(C)CC2CC2)[C@@H](C)CN([C@H](C)CO)C(=O)c2cc(NS(=O)(=O)c3cccs3)ccc2O1`, 11.9% (inactive); to `CCCN(C)C[C@@H]1OCCCC[C@H](C)Oc2ccc(NC(=O)Nc3ccc(F)cc3)cc2C(=O)N([C@H](C)CO)C[C@@H]1C`, -36.2% (inactive).
